How the values were obtained:
[1] = test system: ABUTH (Velvetleaf); test: Postemergence herbicidal evaluation; assay type: in vivo, Abutilon theophrasti; details: postemergence
In short: (§1)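 First, seedlings were raised for around two weeks. Next, test material in 50/50 acetone/water containing 0.5% TWEEN 20 was sprayed through a nozzle at 40 psi, equivalent to about 0.0156–0.500 kg/ha. Finally, after 4–5 weeks in the greenhouse, plants were rated 0–9.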

[2] = test system: TRZAWR (Wheat, Winter, cv Riband); test: Postemergence herbicidal evaluation; assay type: in vivo, Triticum aestivum; details: postemergence
In short: as §1

[3] = test system: SETVI (Foxtail, Green); test: Preemergence herbicidal evaluation; assay type: in vivo, Setaria viridis; details: rated 4-5 weeks after treatment
In short: (§2)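 Sown cups got a single aqueous acetone spray of test compound (roughly 0.0156–0.500 kg/ha) before seedlings emerged. Evaluation, 4–5 weeks on, used a 0–9 visual scale covering plant stand, vigor, size, malformation, chlorosis and general appearance compared with controls.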

[4] = test system: SAGPY (Arrowhead (Pygmaea)); test: Preemergence weed control under flooded paddy conditions; assay type: in vivo, Sagittaria pygmaea; details: rated 3-4 weeks after treatment
In short: (§3)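 Using flooded silt loam (water 1.5 to 3 cm deep), seeds sown in the top 0.5 cm were exposed preemergence to compound pipetted into the flood at about 0.0313 to 0.500 kg/ha. Effects were scored 0-9 by eye three to four weeks later.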

[5] = test system: GLXMAW (Soybean, Williams); test: Postemergence herbicidal evaluation; assay type: in vivo, Glycine max, (L.) Merr. cv Williams; details: postemergence
In short: as §1

[6] = test system: AMBEL (Ragweed, Common); test: Postemergence herbicidal evaluation; assay type: in vivo, Ambrosia artemisifolia; details: postemergence
In short: as §1

[7] = test system: CASOB (Sicklepod); test: Preemergence herbicidal evaluation; assay type: in vivo, Cassia obtusifolia; details: rated 4-5 weeks after treatment
In short: as §2

[8] = test system: ABUTH (Velvetleaf); test: Preemergence herbicidal evaluation; assay type: in vivo, Abutilon theophrasti; details: rated 4-5 weeks after treatment
In short: as §2

[9] = test system: ECHCG (Barnyardgrass); test: Postemergence herbicidal evaluation; assay type: in vivo, Echinochloa crus-galli; details: postemergence
In short: as §1

[10] = test system: SETVI (Foxtail, Green); test: Postemergence herbicidal evaluation; assay type: in vivo, Setaria viridis; details: postemergence
In short: as §1

[11] = test system: ORYSAT (Rice, Tebonnet); test: Postemergence herbicidal evaluation; assay type: in vivo, Oryza sativa, (L.) Tebonnet; details: postemergence
In short: as §1

[12] = test system: MOOVA (Monochoria); test: Preemergence weed control under flooded paddy conditions; assay type: in vivo, Monochoria vaginalis; details: rated 3-4 weeks after treatment
In short: as §3

CCOC(=O)CN1C(=O)C(OC)SC1=Nc1cc(-n2c(=O)cc(C(F)(F)F)n(C)c2=O)c(F)cc1Cl (centres unmarked) [Compound 160, Ethyl 2-{{2-chloro-5-[3,6-dihydro-3-methyl-2,6-dioxo-4-(trifluoromethyl)-1(2H)-pyrimidinyl]-4-fluorophenyl}imino}-5-methoxy-4-oxo-3-thiazolidineacetate]
Herbicidal rating ABUTH ([1]; rate 0.0156 kg/ha): 9.0 | Herbicidal rating ABUTH ([1]; rate 0.0313 kg/ha): 9.0 | Herbicidal rating ABUTH ([1]; rate 0.0625 kg/ha): 9.0 | Herbicidal rating ABUTH ([1]; rate 0.1250 kg/ha): 9.0 | Herbicidal rating TRZAWR ([2]; rate 0.0156 kg/ha): 3.0 | Herbicidal rating TRZAWR ([2]; rate 0.0313 kg/ha): 4.0 | Herbicidal rating TRZAWR ([2]; rate 0.0625 kg/ha): 5.0 | Herbicidal rating TRZAWR ([2]; rate 0.1250 kg/ha): 6.0 | Preemergence herbicidal rating SETVI ([3]; 0.0156 kg/ha): 0.0 | Preemergence herbicidal rating SETVI ([3]; 0.0313 kg/ha): 1.0 | Preemergence herbicidal rating SETVI ([3]; 0.0625 kg/ha): 7.0 | Preemergence herbicidal rating SETVI ([3]; 0.1250 kg/ha): 7.0 | Preemergence herbicidal rating SETVI ([3]; 0.2500 kg/ha): 7.0 | Preemergence herbicidal rating SETVI ([3]; 0.5000 kg/ha): 9.0 | herbicidal effect rating, SAGPY ([4]; 0.0313 kg/ha): 0.0 | herbicidal effect rating, SAGPY ([4]; 0.0625 kg/ha): 2.0 | herbicidal effect rating, SAGPY ([4]; 0.1250 kg/ha): 5.0 | herbicidal effect rating, SAGPY ([4]; 0.2500 kg/ha): 8.0 | Herbicidal rating GLXMAW ([5]; rate 0.0156 kg/ha): 5.0 | Herbicidal rating GLXMAW ([5]; rate 0.0313 kg/ha): 6.0 | Herbicidal rating GLXMAW ([5]; rate 0.0625 kg/ha): 7.0 | Herbicidal rating GLXMAW ([5]; rate 0.1250 kg/ha): 7.0 | Herbicidal rating AMBEL ([6]; rate 0.0156 kg/ha): 7.0 | Herbicidal rating AMBEL ([6]; rate 0.0313 kg/ha): 7.0 | Herbicidal rating AMBEL ([6]; rate 0.0625 kg/ha): 9.0 | Herbicidal rating AMBEL ([6]; rate 0.1250 kg/ha): 9.0 | Preemergence herbicidal rating CASOB ([7]; 0.0156 kg/ha): 0.0 | Preemergence herbicidal rating CASOB ([7]; 0.0313 kg/ha): 0.0 | Preemergence herbicidal rating CASOB ([7]; 0.0625 kg/ha): 2.0 | Preemergence herbicidal rating CASOB ([7]; 0.1250 kg/ha): 1.0 | Preemergence herbicidal rating CASOB ([7]; 0.2500 kg/ha): 7.0 | Preemergence herbicidal rating CASOB ([7]; 0.5000 kg/ha): 9.0 | Preemergence herbicidal rating ABUTH ([8]; 0.0156 kg/ha): 5.0 | Preemergence herbicidal rating ABUTH ([8]; 0.0313 kg/ha): 9.0 | Preemergence herbicidal rating ABUTH ([8]; 0.0625 kg/ha): 9.0 | Preemergence herbicidal rating ABUTH ([8]; 0.1250 kg/ha): 9.0 | Preemergence herbicidal rating ABUTH ([8]; 0.2500 kg/ha): 9.0 | Preemergence herbicidal rating ABUTH ([8]; 0.5000 kg/ha): 9.0 | Herbicidal rating ECHCG ([9]; rate 0.0156 kg/ha): 3.0 | Herbicidal rating ECHCG ([9]; rate 0.0313 kg/ha): 5.0 | Herbicidal rating ECHCG ([9]; rate 0.0625 kg/ha): 4.0 | Herbicidal rating ECHCG ([9]; rate 0.1250 kg/ha): 7.0 | Herbicidal rating SETVI ([10]; rate 0.0156 kg/ha): 0.0 | Herbicidal rating SETVI ([10]; rate 0.0313 kg/ha): 6.0 | Herbicidal rating SETVI ([10]; rate 0.0625 kg/ha): 9.0 | Herbicidal rating SETVI ([10]; rate 0.1250 kg/ha): 9.0 | Herbicidal rating ORYSAT ([11]; rate 0.0156 kg/ha): 2.0 | Herbicidal rating ORYSAT ([11]; rate 0.0313 kg/ha): 3.5 | Herbicidal rating ORYSAT ([11]; rate 0.0625 kg/ha): 4.5 | Herbicidal rating ORYSAT ([11]; rate 0.1250 kg/ha): 4.5 | herbicidal effect rating, MOOVA ([12]; 0.0313 kg/ha): 5.0 | herbicidal effect rating, MOOVA ([12]; 0.0625 kg/ha): 6.0 | herbicidal effect rating, MOOVA ([12]; 0.1250 kg/ha): 6.0 | herbicidal effect rating, MOOVA ([12]; 0.2500 kg/ha): 7.0

CCOC(=O)CN1C(=O)C(C(=O)OC(C)(C)C)SC1=Nc1cc(-n2c(=O)cc(C(F)(F)F)n(C)c2=O)c(F)cc1Cl (centres unmarked) [Compound 167, 5-Carboxy-2-{{2-chloro-5-[3,6-dihydro-3-methyl-2,6-dioxo-4-(trifluoromethyl)-1(2H)-pyrimidinyl]-4-fluorophenyl}imino}-4-oxo-3-thiazolidineacetic acid, 5-tert-butyl ethyl ester]
Herbicidal rating ABUTH ([1]; rate 0.0156 kg/ha): 9.0 | Herbicidal rating ABUTH ([1]; rate 0.0313 kg/ha): 9.0 | Herbicidal rating ABUTH ([1]; rate 0.0625 kg/ha): 9.0 | Herbicidal rating ABUTH ([1]; rate 0.1250 kg/ha): 9.0 | Herbicidal rating TRZAWR ([2]; rate 0.0156 kg/ha): 4.0 | Herbicidal rating TRZAWR ([2]; rate 0.0313 kg/ha): 4.0 | Herbicidal rating TRZAWR ([2]; rate 0.0625 kg/ha): 4.0 | Herbicidal rating TRZAWR ([2]; rate 0.1250 kg/ha): 4.5 | Preemergence herbicidal rating SETVI ([3]; 0.0156 kg/ha): 5.0 | Preemergence herbicidal rating SETVI ([3]; 0.0313 kg/ha): 7.0 | Preemergence herbicidal rating SETVI ([3]; 0.0625 kg/ha): 9.0 | Preemergence herbicidal rating SETVI ([3]; 0.1250 kg/ha): 9.0 | Preemergence herbicidal rating SETVI ([3]; 0.2500 kg/ha): 9.0 | Preemergence herbicidal rating SETVI ([3]; 0.5000 kg/ha): 9.0 | herbicidal effect rating, SAGPY ([4]; 0.0313 kg/ha): 4.0 | herbicidal effect rating, SAGPY ([4]; 0.0625 kg/ha): 5.0 | herbicidal effect rating, SAGPY ([4]; 0.1250 kg/ha): 6.0 | herbicidal effect rating, SAGPY ([4]; 0.2500 kg/ha): 7.0 | Herbicidal rating GLXMAW ([5]; rate 0.0156 kg/ha): 5.0 | Herbicidal rating GLXMAW ([5]; rate 0.0313 kg/ha): 6.0 | Herbicidal rating GLXMAW ([5]; rate 0.0625 kg/ha): 6.5 | Herbicidal rating GLXMAW ([5]; rate 0.1250 kg/ha): 6.5 | Herbicidal rating AMBEL ([6]; rate 0.0156 kg/ha): 4.0 | Herbicidal rating AMBEL ([6]; rate 0.0313 kg/ha): 7.0 | Herbicidal rating AMBEL ([6]; rate 0.0625 kg/ha): 9.0 | Herbicidal rating AMBEL ([6]; rate 0.1250 kg/ha): 7.0 | Preemergence herbicidal rating CASOB ([7]; 0.0156 kg/ha): 0.0 | Preemergence herbicidal rating CASOB ([7]; 0.0313 kg/ha): 0.0 | Preemergence herbicidal rating CASOB ([7]; 0.0625 kg/ha): 1.0 | Preemergence herbicidal rating CASOB ([7]; 0.1250 kg/ha): 1.0 | Preemergence herbicidal rating CASOB ([7]; 0.2500 kg/ha): 4.0 | Preemergence herbicidal rating CASOB ([7]; 0.5000 kg/ha): 9.0 | Preemergence herbicidal rating ABUTH ([8]; 0.0313 kg/ha): 0.0 | Preemergence herbicidal rating ABUTH ([8]; 0.0625 kg/ha): 9.0 | Preemergence herbicidal rating ABUTH ([8]; 0.1250 kg/ha): 9.0 | Preemergence herbicidal rating ABUTH ([8]; 0.2500 kg/ha): 9.0 | Preemergence herbicidal rating ABUTH ([8]; 0.5000 kg/ha): 9.0 | Herbicidal rating ECHCG ([9]; rate 0.0156 kg/ha): 3.0 | Herbicidal rating ECHCG ([9]; rate 0.0313 kg/ha): 3.0 | Herbicidal rating ECHCG ([9]; rate 0.0625 kg/ha): 3.0 | Herbicidal rating ECHCG ([9]; rate 0.1250 kg/ha): 3.0 | Herbicidal rating SETVI ([10]; rate 0.0156 kg/ha): 2.0 | Herbicidal rating SETVI ([10]; rate 0.0313 kg/ha): 4.0 | Herbicidal rating SETVI ([10]; rate 0.0625 kg/ha): 9.0 | Herbicidal rating SETVI ([10]; rate 0.1250 kg/ha): 9.0 | Herbicidal rating ORYSAT ([11]; rate 0.0156 kg/ha): 3.0 | Herbicidal rating ORYSAT ([11]; rate 0.0313 kg/ha): 3.5 | Herbicidal rating ORYSAT ([11]; rate 0.0625 kg/ha): 3.5 | Herbicidal rating ORYSAT ([11]; rate 0.1250 kg/ha): 4.0 | herbicidal effect rating, MOOVA ([12]; 0.0313 kg/ha): 9.0 | herbicidal effect rating, MOOVA ([12]; 0.0625 kg/ha): 9.0 | herbicidal effect rating, MOOVA ([12]; 0.1250 kg/ha): 9.0 | herbicidal effect rating, MOOVA ([12]; 0.2500 kg/ha): 9.0
